# Test results: patent US20240132461A1, “FLAVONE DEAZA SPERMIDINE ANALOGUES AND THEIR USE TREATING CANCER” (FLORATEK PHARMA S.A., priority 2021, published 2024)
# Assays:
# [1] = system: U87MG human glioblastoma cells; experiment: In vivo tumour inhibition of xenograft human glioblastoma U87MG; settings: 10 mg/kg/inj i.p. qod
# leukaemia cell = experiment: Cell viability assay, leukaemia cell lines (summary); type: cell-based; settings: summary of Table 6A; read-out: IC50, leukaemia cell growth
# Experimental: (§1) Antitumor activity of the compounds and doxorubicin as a positive control was assessed by using the CellTiter-Blue Cell Viability Assay (Promega, #G8082) or CellTiter-Glow® Luminescent Cell Viability assay (Promega # G7572) according to the manufacturer's instructions. The compounds were tested at 5 or 6 concentrations in half-log increments (highest concentration 30 μM-100 μM) in duplicate or triplicate well conditions.
# (§2) Tumor cells were grown at 37° C. in a humidified atmosphere with 5% CO2 in RPMI 1640 or DMEM medium, supplemented with 10% (v/v) fetal calf serum and 50 μg/ml gentamicin for up to 20 passages, and were passaged once or twice weekly. Cells were harvested using TrypLE or PBS buffer containing 1 mM EDTA, and the percentage of viable cells is determined using a CASY Model TT cell counter (OMNI Life Science). Cells were harvested from exponential phase cultures, counted and plated in 96 well flat-bottom microtiter plates at a cell density depending on the cell line's growth rate (4,000-20,000 cells/well depending on the cell line's growth rate, up to 60,000 for hematological cancer cell lines) in RPMI 1640 or DMEM medium supplemented with 10% (v/v) fetal calf serum and 50 μg/ml gentamicin (140 μl/well). […] Viability of cells was quantified by the CellTiter-Blue® cell viability assay (Promega G8081) or CellTiter-Glow® Luminescent Cell Viability assay (Promega # G7572). […]
# [2] = target: T1, RSK2(Kin.Dom.1-N-terminal) (Homo sapiens, UniProt P51812); experiment: KINOMEscan competition binding assay, RSK2(Kin.Dom.1-N-terminal)
# T1 construct: RSK2(Kin.Dom.1-N-terminal); purchased Eurofins (KINOMEscan assay service); host or cells: E. coli BL21-derived (T7 phage) or HEK-293
# From the text: (§3) The Hill Slope was set to −1.
# ST-02-0322 = experiment: PDX cytotoxicity assay, stomach PDX ST-02-0322; type: cell-based
# Experimental: (§4) PDX-derived cell cultures were obtained from tumors explanted from mice and isolated by mechanical and enzymatic dissociation. […] Cells were harvested and seeded in 96-wells plates at a density of 1.25 to 5×10^3 cells/well for cytotoxicity assays. Cells were incubated 48 h at 37° C. prior to addition of test molecules and vehicle (DMSO, 0.1%) at desired final concentrations. Cell viability was assessed before drugs' addition (T0) and 5 days after test molecules addition by measuring ATP cell content using CellTiter-Glo® Luminescent Cell Viability Assay (Promega) according to the manufacturer's instructions. Luciferase activity was measured on a luminometer (PerkinElmer® EnVision™). Each concentration of compounds was tested in triplicate.
# (§5) Viability was calculated as a percentage of ATP value compared to vehicle treated controls.
# (§6) For PDX primary cell cultures, the tumour tissue was washed with PBS containing antibiotic-antimycotic and non-tumour tissue and necrotic tumour tissues were separated. The tumour tissue was transferred to a new dish and cut into 1˜2 mm^3 fragments, resuspended in RPMI-1640 medium and centrifuged at 1,200 rpm for 6 min at room temperature. The pelleted material was resuspended with 15 mL of Tumour Cell Digestion Solution and incubated at 37° C. for 1 hour with agitation. […]
# LU-01-0025 = experiment: PDX cytotoxicity assay, lung carcinoma PDX LU-01-0025; type: cell-based
# Experimental: as §4, §5, §6
# MOLT-16 = experiment: Cell viability assay, leukaemia cell line MOLT-16; type: cell-based; settings: Homo sapiens; MOLT-16 leukaemia cell line
# Experimental: as §1, §2
# PIM3 = target: T2, PIM3 (Homo sapiens, UniProt Q86V86); experiment: KINOMEscan competition binding assay, PIM3
# T2 construct: purchased Eurofins (KINOMEscan assay service); host or cells: E. coli BL21-derived (T7 phage) or HEK-293
# From the text: as §3
# PIM1 = target: T3, PIM1 (Homo sapiens, UniProt P11309); experiment: KINOMEscan competition binding assay, PIM1
# T3 construct: purchased Eurofins (KINOMEscan assay service); host or cells: E. coli BL21-derived (T7 phage) or HEK-293
# From the text: as §3
# BR-05-0014E = experiment: PDX cytotoxicity assay, breast PDX BR-05-0014E; type: cell-based
# Experimental: as §4, §5, §6
# SC6 = experiment: PDX cytotoxicity assay, small cell lung carcinoma PDX SC6; type: cell-based
# Experimental: as §4, §5, §6
# NCI-H1299 = experiment: Cell viability assay, non-small cell lung carcinoma cell line NCI-H1299; type: cell-based; settings: Homo sapiens
# Experimental: as §1
# Tumor cells were grown at 37° C. in a humidified atmosphere with 5% CO2 in RPMI 1640 or DMEM medium, supplemented with 10% (v/v) fetal calf serum and 50 μg/ml gentamicin for up to 20 passages, and were passaged once or twice weekly. Cells were harvested using TrypLE or PBS buffer containing 1 mM EDTA, and the percentage of viable cells is determined using a CASY Model TT cell counter (OMNI Life Science). Cells were harvested from exponential phase cultures, counted and plated in 96 well flat-bottom microtiter plates at a cell density depending on the cell line's growth rate (4,000-20,000 cells/well depending on the cell line's growth rate, up to 60,000 for hematological cancer cell lines) in RPMI 1640 or DMEM medium supplemented with 10% (v/v) fetal calf serum and 50 μg/ml gentamicin (140 μl/well). Cultures were incubated at 37° C. and 5% CO2 in a humidified atmosphere. After 24 h, 10 μl of test compounds or control medium are added, and left on the cells for another 72 h. Compounds were serially diluted in DMSO, transferred in cell culture medium, and added to the assay plates. The DMSO concentration was kept constant at <0.3% v/v across the assay plate. Viability of cells was quantified by the CellTiter-Blue® cell viability assay (Promega G8081) or CellTiter-Glow® Luminescent Cell Viability assay (Promega # G7572). Fluorescence (FU) was measured by using the EnSpire® multimode plate reader (Perkin Elmer) (excitation λ=570 nm, emission λ=600 nm) or luminescent detection of ATP in viable cells was used as parameter for proliferation. Luminescence was measured with the microplate luminometer (Promega or Perkin Elmer).
# Sigmoidal concentration-response curves were fitted to the data points (test-versus-control, T/C values) obtained for each tumor model using 4 parameter non-linear curve fit (Charles River DRS Datawarehouse Software) or with GraphPad prism 5.02 software. IC50 values are reported as absolute IC50 values, being the concentration of test compound at the intersection of the concentration-response curves with T/C=50%
# [3] = In vivo maximum tolerated dose in NOG mice
# Experimental: In order to evaluate the general toxicity of selected SND compounds in an animal model, a maximum tolerated dose (MTD) in NOG mice has been undertaken. Three mice per group were treated daily or every other day over 8 days at various doses between 5 mg/kg and 10 mg/kg. Administration of the compounds was i.p. A stock solution of the compounds (40 mg/ml in DMSO) was prepared and frozen at −20° C. in aliquots for each treatment. […] Body weights were measured before each treatment. Mice were further observed for 1 week after the last treatment.
compound,measurement,setting,value
COc1c(O)ccc2c(=O)cc(-c3ccc(CNCCCCNCCCN)cc3)oc12 [SND164],body weight loss,[1]; U87MG xenograft mice,no significant body weight loss
same,death during the study,[1]; U87MG xenograft mice,no death
same,tolerability of the treatment,[1]; U87MG xenograft mice,well tolerated
same,"Optimum T/C, day 26","[1]; glioblastoma U87MG CDX s.c. in nude mice, 10 injections, ***P < 0.001 vs vehicle",54***
same,IC50,leukaemia cell,< 10 µM
same,Kd,[2],1.4 µM
same,IC50,ST-02-0322,5.45 µM
same,IC50,LU-01-0025,5 µM
same,IC50,MOLT-16,4.36 µM
same,Kd,PIM3,0.43 µM
same,Kd,PIM1,0.58 µM
same,IC50,BR-05-0014E,13.3 µM
same,IC50,SC6,3.64 µM
same,IC50,NCI-H1299,1.25 µM
same,tolerability at the highest dose administered,"[3]; 8-10 mg/kg i.p., daily or every other day over 8 days",well tolerated
same,MTD at 8 days,"[3]; mouse, in vivo, ip, repeated i.p. administration, MTD not reached, read-out: maximum tolerated dose (MTD), estimated",> 10 mg/kg
